Some test systems named below: PC-3 prostate; UACC-62 melanoma; SK-MEL-5 melanoma; IGROV1 ovarian; SF-295 CNS; HCC-2998 colon; CCRF-CEM leukemia; NCI-H522 lung; MCF7 breast; MALME-3M melanoma; COLO 205 colon; RPMI-8226 leukemia; SNB-75 CNS; HL-60(TB) leukemia; SK-OV-3 ovarian; U251 CNS; TK-10 renal; SF-268 CNS; HT29 colon; SW-620 colon.
Holding throughout (assay): inhibition of tumour cell growth, NCI panel, 48 h

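How tested: cells in 96-well plates exposed to compound for 48 hours at five concentrations. The concentration for full growth arrest is given as TGI.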

The values that follow come from PubChem BioAssay (NCI).

Consider `CN(C)c1ccc(N2C(=S)SC(=Nc3ccccc3)C2=Nc2ccccc2)cc1`, for which the TGI in the test with PC-3 prostate, in the test with UACC-62 melanoma, in the test with SK-MEL-5 melanoma, in the test with IGROV1 ovarian, with SF-295 CNS and in the test on HCC-2998 colon was more than 100 µM throughout. In addition, the TGI with CCRF-CEM leukemia, with NCI-H522 lung, in the test on MCF7 breast, with MALME-3M melanoma, in the test with COLO 205 colon and with RPMI-8226 leukemia was more than 100 µM each time. The TGI in the test on SNB-75 CNS, in the test with HL-60(TB) leukemia, in the test with SK-OV-3 ovarian and with U251 CNS was more than 100 µM each time.
In the case of `CC1(C)OP23(NC(=O)OC2(C(F)(F)F)c2ccccc2O3)OC1(C)C` (stereo not given), the TGI in the test on TK-10 renal, in the test on UACC-62 melanoma, in the test on SK-MEL-5 melanoma, with SF-268 CNS, in the test with SF-295 CNS and in the test with CCRF-CEM leukemia was more than 100 µM each time. Further, the TGI with NCI-H522 lung, with MALME-3M melanoma, in the test with SNB-75 CNS, in the test on HL-60(TB) leukemia, with SK-OV-3 ovarian and with U251 CNS was more than 100 µM throughout. The compound further gave a TGI with HT29 colon of more than 100 µM.
As for `COc1ccc2[nH]c(C(=O)N3CC(CCl)c4ccc(N)cc43)cc2c1` (stereo not given), the TGI was 10 µM with PC-3 prostate; more than 100 µM with TK-10 renal; 0.376 µM in the test on UACC-62 melanoma; 0.195 µM in the test on SK-MEL-5 melanoma; 0.383 µM in the test with HCC-2998 colon; 1.44 µM in the test with CCRF-CEM leukemia. For the same compound, the TGI with NCI-H522 lung was 0.0882 µM; in the test with MCF7 breast, more than 39.1 µM; with MALME-3M melanoma, 0.302 µM; with SW-620 colon it was more than 100 µM; in the test on RPMI-8226 leukemia it was more than 35.4 µM; in the test with SNB-75 CNS, 0.475 µM. Also, the TGI in the test with HL-60(TB) leukemia is 0.631 µM; with SK-OV-3 ovarian it was more than 100 µM; with U251 CNS, more than 31.6 µM; in the test with HT29 colon it was 0.508 µM.
Take `COC(=O)/C=C\Sc1ccn(/C=C\C(=O)OC)c(=S)n1`: the TGI was 46.5 µM in the test with PC-3 prostate; 51.1 µM in the test with TK-10 renal; 80.6 µM in the test with SK-MEL-5 melanoma; 65.9 µM in the test with SF-268 CNS; 35.2 µM in the test on IGROV1 ovarian; more than 100 µM in the test on HCC-2998 colon. Also, the TGI in the test on CCRF-CEM leukemia is more than 100 µM; in the test on NCI-H522 lung, 31.4 µM; with MCF7 breast, 36.5 µM; in the test with MALME-3M melanoma, 53.9 µM; with SW-620 colon, 56.5 µM; with COLO 205 colon, more than 100 µM. The TGI in the test on RPMI-8226 leukemia was more than 100 µM; with SNB-75 CNS, 43.1 µM; in the test with HL-60(TB) leukemia, more than 100 µM; in the test with U251 CNS, 39.9 µM; with HT29 colon, 52.9 µM.
As for `N/N=C(\C(=O)Nc1c(Cl)cc([N+](=O)[O-])cc1Cl)C(c1cnc2ccc([N+](=O)[O-])cc2n1)[N+](=O)[O-]` (stereo not given), the TGI in the test on TK-10 renal, in the test with UACC-62 melanoma, in the test on SK-MEL-5 melanoma, with SF-268 CNS, in the test on IGROV1 ovarian and with SF-295 CNS was more than 100 µM in each case. In addition, the TGI in the test with HCC-2998 colon is more than 100 µM; with CCRF-CEM leukemia, more than 100 µM; with NCI-H522 lung it was 53.3 µM; in the test on SW-620 colon, more than 100 µM; with COLO 205 colon, more than 100 µM; in the test on RPMI-8226 leukemia it was more than 100 µM. Further, the TGI in the test with SNB-75 CNS, in the test on HL-60(TB) leukemia, with SK-OV-3 ovarian, in the test with U251 CNS and with HT29 colon was more than 100 µM throughout.
Consider `O=C(CCCn1cnc([N+](=O)[O-])n1)NCCn1ccnc1[N+](=O)[O-]`, for which the TGI in the test on PC-3 prostate, in the test on TK-10 renal, in the test with UACC-62 melanoma, in the test with SK-MEL-5 melanoma, in the test with SF-268 CNS and with IGROV1 ovarian was more than 100 µM each time. Also, the TGI in the test with SF-295 CNS, in the test on CCRF-CEM leukemia, in the test with NCI-H522 lung, in the test on MCF7 breast, in the test with SW-620 colon and with COLO 205 colon was more than 100 µM in each case. The TGI in the test with RPMI-8226 leukemia, in the test on SNB-75 CNS, in the test with HL-60(TB) leukemia, with SK-OV-3 ovarian, with U251 CNS and in the test with HT29 colon was more than 100 µM each time.
Take `O=C(Nc1ccccc1F)c1c(O)nc2sccn2c1=O`: the TGI with PC-3 prostate, with TK-10 renal, in the test with UACC-62 melanoma, with SK-MEL-5 melanoma, in the test on SF-268 CNS and in the test on IGROV1 ovarian was more than 10 µM throughout. The TGI in the test on SF-295 CNS, in the test with HCC-2998 colon, with CCRF-CEM leukemia, with NCI-H522 lung, in the test on MCF7 breast and in the test with MALME-3M melanoma was more than 10 µM in each case. Besides, the TGI in the test with SW-620 colon, with COLO 205 colon, with RPMI-8226 leukemia, in the test on SNB-75 CNS, in the test with HL-60(TB) leukemia and with SK-OV-3 ovarian was more than 10 µM in each case. The TGI in the test with U251 CNS and in the test on HT29 colon was more than 10 µM throughout.
`CC(=O)OC(Cc1cc(C=C(C(F)(F)F)C(F)(F)F)cc(C)n1)(C(F)(F)F)C(F)(F)F`: the TGI was 5.34 µM with PC-3 prostate; 6.7 µM in the test with TK-10 renal; 3.54 µM in the test with UACC-62 melanoma; 2.82 µM in the test on SK-MEL-5 melanoma; 5.81 µM in the test on SF-268 CNS; 1.58 µM in the test with IGROV1 ovarian. Also, the TGI in the test with SF-295 CNS was 8.21 µM; in the test on HCC-2998 colon, 13.3 µM; with MCF7 breast, 0.97 µM; in the test with MALME-3M melanoma, more than 20.8 µM; in the test with SW-620 colon, 5.67 µM; with COLO 205 colon it was 2.99 µM. Further, the TGI in the test on RPMI-8226 leukemia was 4.56 µM; in the test on SNB-75 CNS it was 7.02 µM; in the test with HL-60(TB) leukemia, 1.18 µM; in the test with SK-OV-3 ovarian, more than 51.9 µM; in the test with U251 CNS, 4.74 µM; with HT29 colon it was 5.32 µM.
